Results taken from the supplement of paper PMC10627819.

Columns and labels:
[1] = system: B. subtilis 168; experiment: fitness (endpoint OD595 vs no drug) (fraction); higher = more growth
How it was run: (§1)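 Bacterial fitness was scored as optical density at the stationary-phase transition relative to the robust mean of no-drug control wells. Scores are capped at 1. The growth data were OD595 readings every 30 min for 14 h at 37 °C, background-subtracted against the first reading, from 384-well plates inoculated at OD595 0.01 in TSB, LB Lennox or CY.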

[2] = system: S. aureus DSM 20231; experiment: as above
How it was run: as §1

[3] = system: S. pneumoniae D39V; experiment: as above
How it was run: as §1

[4] = system: B. subtilis 168; experiment: Bliss interaction score (quartile over a dose matrix) (fitness difference); higher = more antagonism (negative = synergy)
How it was run: (§2)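 Fitness was defined as normalised growth: OD595 at the start of stationary phase divided by the plate's robust no-drug mean and capped at 1. Single-drug fitness was inferred from combination measurements. The Bliss score is observed fitness minus the product of the single-drug values, summarised by quartiles across technical, biological and donor/recipient replicates.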

[5] = system: S. aureus DSM 20231; experiment: as above
How it was run: as §2

[6] = system: S. aureus Newman; experiment: as above
How it was run: as §2

[7] = system: S. pneumoniae D39V; experiment: as above
How it was run: as §2
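For Bliss interaction score (quartile over a dose matrix) in this document: first quartile when negative (synergy) and third quartile when positive (antagonism).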
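For fitness (endpoint OD595 vs no drug) in this document: OD595 on entry to stationary phase over no-drug wells; at most 1.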

CCC[C@@H]1C[C@@H](C(=O)N[C@@H]([C@H]2O[C@H](SC)[C@H](O)[C@@H](O)[C@H]2O)[C@@H](C)O)N(C)C1 [Lincomycin] + Cc1cc(NS(=O)(=O)c2ccc(N)cc2)no1 [Sulfamethoxazol]
fitness
Conditions | first compound 0.1 µg/mL | first compound 0.2 µg/mL | first compound 0.215 µg/mL | first compound 0.4 µg/mL | first compound 0.43 µg/mL | first compound 0.86 µg/mL
[1], partner 1 µg/mL | 0.831 | 0.862 | – | 0.891 | – | –
[1], partner 2 µg/mL | 0.872 | 0.874 | – | 0.841 | – | –
[1], partner 4 µg/mL | 0.893 | 0.938 | – | 0.895 | – | –
[2], partner 1 µg/mL | 0.82 | 0.616 | – | 0.343 | – | –
[2], partner 2 µg/mL | 0.815 | 0.687 | – | 0.37 | – | –
[2], partner 4 µg/mL | 0.828 | 0.697 | – | 0.304 | – | –
[3], partner 1 µg/mL | – | – | 0.746 | – | 0.658 | 0.252
[3], partner 2 µg/mL | – | – | 0.762 | – | 0.676 | 0.214
[3], partner 4 µg/mL | – | – | 0.786 | – | 0.691 | 0.265

fitness, one replicate
Conditions | first compound 0.2 µg/mL | first compound 0.4 µg/mL | first compound 0.8 µg/mL | first compound 1.6 µg/mL
[1], partner 0.5 µg/mL | – | 0.903 | 0.806 | 0.862
[1], partner 1 µg/mL | – | – | 0.76 | 0.698
[1], partner 2 µg/mL | – | – | 0.795 | 0.788
[3], partner 1 µg/mL | 0.731 | 0.674 | 0.323 | –
[3], partner 2 µg/mL | 0.761 | 0.688 | 0.346 | –
[3], partner 4 µg/mL | 0.724 | 0.621 | 0.308 | –

Conditions | Bliss interaction score
[4] | -0.0615
[5] | -0.0797
[6] | 0.0671
[7] | -0.128
